Reference: patent publication US4057686A, “Sulphonic acid salts of S-adenosilmethionine” (Bioresearch Limited, priority 1974, dated 1977)
Read-outs that look alike come from different tables or passages of the source.

Assays:
[1] = test system: Parkinsons disease and Parkinsonisms; assay: Clinical tests: Parkinsons disease and Parkinsonisms, with Levodopa; type: in vivo, human
[2] = test system: osteoarthritic forms; assay: Clinical tests: osteoarthritis; type: in vivo, human
[3] = test system: Randal and Selitto test; assay: Randal and Selitto analgesia test in the rat; type: in vivo; details: in comparison with known drugs studied
Description: (§1) Of the various tests we shall mention the most classic, namely the edema by carragenine and by egg white as a test for acute inflammation; and granuloma by cotton pellets and arthritis by adjuvant as a test for chronic inflammation. […] The analgesia tests were in the form of the hot plate test and stretching by acetic acid, and the Randal and Selitto test in the rat.

[4] = test system: subjects with hyperdislipidemia in the uncompensated stage; assay: Clinical tests: hyperdislipidemia; type: in vivo, human; details: 2-3 times per day
[5] = test system: clear arteriosclerosis with clinical manifestations of the psycho-affective sphere; assay: Clinical tests: arteriosclerosis, hypoxydotic states, post-apoplectic syndromes; type: in vivo, human
[6] = test system: disturbances of the sleeping-waking rhythm, insomnia; assay: Clinical tests: disturbances of the sleeping-waking rhythm; type: in vivo, human; details: 4-13 mg orally
[7] = test system: granuloma by cotton pellets; assay: Granuloma by cotton pellets (chronic inflammation); type: in vivo; details: orally 8 to 40 mg/kg; parenterally 4 to 8 mg/kg; in comparison with Ibuprofen, Indometacina
Description: as §1

[8] = mouse, in vivo
Description: Parallel with this, an autoradiographic study was made on the mouse.

[9] = test system: depressive forms; assay: Clinical tests: depressive forms (tests of Hamilton and Wittenberg); type: in vivo, human; details: 8 to 20 mg 3-4 times per day, 5-15 days, no other therapy
[10] = test system: mouse; assay: Acute toxicity (DL50) in the mouse; type: in vivo
Description: In particular, the DL50 in the mouse in greater than 2.5 g/kg/os and 1.00 g/kg/i.p.

[11] = test system: subjects with hypoprotidemias, disprotidemias, chronic hepatopathias, precyrrotic and cyrrotic states, malabsorption and protide dispersing syndromes; assay: Clinical tests: hypoprotidemias, chronic hepatopathias, cyrrotic states, malabsorption; type: in vivo, human; details: 20 to 80 mg per day, intermuscular, intravenous or oral
Experimental: 2. Hundreds of subjects were treated clinically affected with: secondary hypoprotidemias and disprotidemias; persistent and aggressive chronic hepatopathias; precyrrotic and cyrrotic states; malabsorption syndromes, and protide dispersing syndromes.

[12] = test system: hepatic cholesterol degeneration; assay: Hepatic cholesterol degeneration in the rat (Ridout); type: in vivo; details: for Fresh liver weight: three weeks
Description: (§2) The values are the averages ± E.S. of 10 values for each group. In studying the hepatoprotective activity we have used an experimental device which produces in the rat the so-called hepatic cholesterol degeneration (Ridout and Coll., Biochem. J. 52, 99, 1952).
In this method, by means of a suitable diet, a conspicuous increase in the total hepatic fats and hepatic cholesterol are obtained in the animals. The substances which act in the lipidic metabolism reduce or annul this increase.
The animals were divided into six groups. The first group was administered with a diet which was varied at will. The second group was administered with the basic diet of Ridout (20 g per rat per day); the other groups were administered with the same diet in the same doses but enriched with cholesterol to the extent of 0.2 g/rat/day. The treatment lasted three weeks. The groups 4,5,6 were administered with SAM in the following doses:
0.4, 0.8, 2 mg/kg/i.p. per day.
At the end of the three weeks all the animals were killed, the livers were withdrawn and the total fats (Best and Coll., Biochem. J. 40, 368, 1966) and cholesterol (Sperry and Brand, J. Biol. Chem. 150, 315, 1943) were determined.

[13] = test system: rabbit; details: in vivo, 16 mg/kg
[14] = test system: young volunteer healthy subjects of both sexes; assay: Tolerability in young volunteer healthy subjects; type: in vivo; details: man, 5-150 mg
[15] = test system: rats; details: rat, in vivo
[16] = in vivo, 4.2 mg/kg; for Distribution of SAM in rat tissues: Hypophysis / Distribution of SAM in rat tissues: Hypothalamus / Distribution of SAM in rat tissues: Liver / Distribution of SAM in rat tissues: Plasma / Distribution of SAM in rat tissues: Rind / Distribution of SAM in rat tissues: Spleen / Distribution of SAM in rat tissues: Suprarenal glands: iv
Experimental: In order to indicatively determine how SAM is distributed in the tissues, S-Adenosilmethionine (Methyl C^14) was prepared. The distribution of this product in rats was studied by administering a dose of 4.2 mg/kg/e.v. equal to approxymately 10 μci of radioactive product. The specific activity of the product was 58 mCi/m moles.

[17] = test system: hepatic steatosis; assay: Hepatic steatosis models in rats (Handler diet, acute alcoholic intoxication, toxic agents); type: in vivo, rat
Description: (§3) This was confirmed by subsequent pharmacological tests.

[18] = test system: sleeping time induced by hexobarbital; assay: Hexobarbital sleeping time in mice (Holten and Larsen); type: in vivo
Experimental: A further aspect considered by us was the possible action of SAM on the sleeping time by barbiturates.
For this purpose an experiment was carried out in which groups of mice received hexobarbital in a dose of 80 mg/kg/i.p. in accordance with the method of Holten and Larsen (Acta Pharmacol. Toxicol. 1956, 12, 346); one group was the control group and the second received SAM in a dose of 4 mg/kg/i.p. (table).

[19] = test system: hepatic phospholipids; assay: Hepatic phospholipids in rats after intoxication with CCl4; type: in vivo, rat
Description: as §3
Hepatic phospholipids in rats after intoxication with CCl4 and treatment with SAM.
as §2

[20] = test system: neuritis, polyneuritis, anthralgia, sciatica, radiocolitis, torticollis; cephalalgia
Experimental: The antalgic activity of SAM was also tested in different subjects with different neurological frameworks: neuritis, polyneuritis, anthralgia, sciatica, radiocolitis, torticollis.

[21] = test system: rabbits; details: rabbit, in vivo
[22] = test system: rabbit; assay: Local tolerability of injections; type: in vivo
[23] = test system: edema by egg white; assay: Edema by egg white (acute inflammation); type: in vivo; details: orally 8 to 40 mg/kg; parenterally 4 to 8 mg/kg; in comparison with Ibuprofen, Indometacina
Description: as §1

[24] = test system: edema by carragenine; assay: Edema by carragenine (acute inflammation); type: in vivo; details: orally 8 to 40 mg/kg; parenterally 4 to 8 mg/kg; in comparison with Ibuprofen, Indometacina
Description: as §1

[25] = test system: stretching by acetic acid; assay: Stretching by acetic acid analgesia test; type: in vivo; details: in comparison with known drugs studied
Description: as §1

[26] = test system: cat; details: in vivo, 16 mg/kg
[27] = test system: arthritis by adjuvant; assay: Arthritis by adjuvant (chronic inflammation); type: in vivo; details: orally 8 to 40 mg/kg; parenterally 4 to 8 mg/kg; in comparison with Ibuprofen, Indometacina
Description: as §1

[28] = test system: hot plate test; assay: Hot plate analgesia test; type: in vivo; details: in comparison with known drugs studied
Description: as §1

## N[C@@H](Cc1ccc(O)c(O)c1)C(=O)O [Levodopa, reference compound]
[1]; Levodopa alone
  extent of the Parkinson tremor: cannot be modified

## C[S+](CC[C@H](N)C(=O)O)C[C@H]1O[C@@H](n2cnc3c(N)ncnc32)[C@H](O)[C@@H]1O (stereo partly drawn) [SAM, S-Adenosil-L-Methionine]
[2]; 13 mg twice a day intermuscular or intravenous, and 13-20 mg orally 4 times per day
  activity in osteoarthritic forms: active in all osteoarthritic forms
[2]; after 7 days, with respect to the placebo
  muscular spasm, limitation of movement, localised pain and rigidity: influenced in a statistically significant manner
[2]; double blind study
  therapeutic efficiency vs non-steroid antiphlogistic drug: equal to indomethacin
[3]
  analgesic activity: active
[4]; doses of about 8-1.5 mg
  dose dependence of hypocholesterolemising and hypolipemising action: proportional to the dose
[4]; hyperdislipidemia
  hypertriglyceridemia: a marked fall
  total cholesterolemia: a marked fall
  β/α lipoproteic ratios: normalises
[5]; intermuscular, intravenous or slow phleboclysis, 8 to 16 mg 3-4 times per day
  symptomatology in arteriosclerosis: a very favourable modification of the symptomatology
[5]; post-apoplectic syndromes
  improvement of the clinical framework in post-apoplectic syndromes: a greater rapidity was found in the improvement
[6]
  sleeping-waking ratios: considerably improve
[7]
  anti-inflammatory activity: active
[8]
  distribution to tissues: distributed very rapidly to all the tissues
[9]
  remission of main parameters of depressive forms: a significant remissione of the main parameters
[10]; i.p.
  DL50 in the mouse: > 1.00 g/kg
[10]; os
  DL50 in the mouse: greater than 2.5 g/kg
[11]
  albumin level: an increase in the albumin level
  percentage ratios between the electrophoretic fractions of the serum: a tendency to normalise
  subjective symptomology and general objective conditions: often very important improvement
  tests of hepatic functionality: normalising of all the tests of hepatic functionality
  total protidemia: a statistically significant increase
[1]; 4-16 mg per day with Levodopa, vs patients treated only with Levodopa
  akinesia and rigidity: a statistically more significant improvement
[1]; SAM in association with Levodopa
  extent of the Parkinson tremor: Favourable modifications
[1]; depressive states and psychic manifestations of irritative type
  Levodopa dependent psychic disturbances: distinctly improves
[1]; nausea, vomit, inappetite, hypotension, asthenia, cephalea, hypersudoration, insomnia, 4-16 mg per day
  Levodopa side effects: significantly blocks
[12]; 2 mg/kg/i.p.
  protection of the batch: completely protected
[12]; 0.4-0.8 mg/kg/i.p.
  protection of the batch: poorly protected
[12]; batch IV, 0.4 mg/kg/i.p. per day
  Fresh liver weight: 17 g
[12]; batch V, 0.8 mg/kg/i.p. per day
  Fresh liver weight: 16 g
[13]
  carotid pressure, cardiac and respiratory frequency, electrocardiac trace: does not cause any change
[14]; intravenous
  hemopoietic apparatus and hepatic and renal operation: no variations from normal which were statistically significant
[14]; intravenous, 30" to 20', PQ interval, ST section, extrasistol
  electrocardiograph trace: does not show any variation
[14]; rapid intravenous or phleboclysis, 1 minute to 24 hours
  minimum and maximum pressure, pulse and respiratory frequency: does not show any variation from normal values
[15]
  teratogenic actions or malformations: no teratogenic actions were encountered or any malformations
[16]; 0.25 h
  Distribution of SAM in rat tissues: Hypophysis: 2.3 μgr/gr
  Distribution of SAM in rat tissues: Hypothalamus: 0.3 μgr/gr
  Distribution of SAM in rat tissues: Liver: 1.7 μgr/gr
  Distribution of SAM in rat tissues: Plasma: 7.5 μgr/gr
  Distribution of SAM in rat tissues: Rind: 0.25 μgr/gr
  Distribution of SAM in rat tissues: Spleen: 1.3 μgr/gr
  Distribution of SAM in rat tissues: Suprarenal glands: 1.9 μgr/gr
[16]; 1 h
  Distribution of SAM in rat tissues: Hypophysis: 2.5 μgr/gr
  Distribution of SAM in rat tissues: Hypothalamus: 0.65 μgr/gr
  Distribution of SAM in rat tissues: Liver: 3.0 μgr/gr
  Distribution of SAM in rat tissues: Plasma: 2.1 μgr/gr
  Distribution of SAM in rat tissues: Rind: 0.45 μgr/gr
  Distribution of SAM in rat tissues: Spleen: 1.2 μgr/gr
  Distribution of SAM in rat tissues: Suprarenal glands: 3.4 μgr/gr
[16]; 4 h
  Distribution of SAM in rat tissues: Hypophysis: 8.0 μgr/gr
  Distribution of SAM in rat tissues: Hypothalamus: 1.0 μgr/gr
  Distribution of SAM in rat tissues: Liver: 5.5 μgr/gr
  Distribution of SAM in rat tissues: Plasma: 2.3 μgr/gr
  Distribution of SAM in rat tissues: Rind: 0.75 μgr/gr
  Distribution of SAM in rat tissues: Spleen: 3.5 μgr/gr
  Distribution of SAM in rat tissues: Suprarenal glands: 4.8 μgr/gr
[16]; 8 h
  Distribution of SAM in rat tissues: Hypophysis: 4.5 μgr/gr
  Distribution of SAM in rat tissues: Hypothalamus: 1.3 μgr/gr
  Distribution of SAM in rat tissues: Liver: 5.6 μgr/gr
  Distribution of SAM in rat tissues: Plasma: 2.0 μgr/gr
  Distribution of SAM in rat tissues: Rind: 8.5 μgr/gr
  Distribution of SAM in rat tissues: Spleen: 2.6 μgr/gr
  Distribution of SAM in rat tissues: Suprarenal glands: 4.5 μgr/gr
[16]; 24 h
  Distribution of SAM in rat tissues: Hypophysis: 4.2 μgr/gr
  Distribution of SAM in rat tissues: Hypothalamus: 1.3 μgr/gr
  Distribution of SAM in rat tissues: Liver: 5.7 μgr/gr
  Distribution of SAM in rat tissues: Plasma: 1.1 μgr/gr
  Distribution of SAM in rat tissues: Rind: 9.4 μgr/gr
  Distribution of SAM in rat tissues: Spleen: 2.8 μgr/gr
  Distribution of SAM in rat tissues: Suprarenal glands: 4.4 μgr/gr
[16]; rat
  distribution to tissues: distributed very rapidly to all the tissues
[17]
  accumulation of lipids at the hepatocite level: significantly reduces
[18]
  prolonging the sleeping time induced by hexobarbital: active in prolonging the sleeping time
[19]
  restoration of normal levels of phospholipids: favours the restoration of normal levels of phospholipids
[20]; neurological frameworks, 6 mg twice a day intermuscular or 13-20 mg 3-4 times per day orally
  therapeutic (antalgic) effect: available and efficient from the first day of administration
[20]; orally in masticable tablets
  therapeutic effect in recurring and resistant cephalalgia: Analogous results were obtained
[21]
  teratogenic actions or malformations: no teratogenic actions were encountered or any malformations
[22]; intramuscular, even repeated over 180 days
  local tolerability of the intramuscular injection: excellent
[22]; intravenous, marginal vein of the auricular pavilion of the rabbit
  local tolerability of the intravenous injection: excellent
[23]
  anti-inflammatory activity: active
[24]
  anti-inflammatory activity: active
[25]
  analgesic activity: active
[26]
  carotid pressure, cardiac and respiratory frequency, electrocardiac trace: does not cause any change
[27]
  anti-inflammatory activity: active
[28]
  analgesic activity: active
